{"source": "patent US6355676B1", "about": "“Fumaric acid micro tablets” (Fumapharm AG, priority 1998, dated 2002)", "key": {"isolated monocytes": {"test_system": "isolated monocytes", "assay": "Endotoxin-stimulated TNF-α secretion in isolated monocytes", "assay_type": "cell-based, human", "details": "initial exposure", "excerpt": "(§1) With multiple re-exposure, the endotoxin-induced increase in TNF-α secretion is reduced, i.e. adaptation takes place."}, "[1]": {"test_system": "human mononuclear cells of the peripheral blood (PBMC)", "assay": "Endotoxin-stimulated TNF-α secretion in PBMC", "assay_type": "cell-based", "excerpt": "as §1"}}, "note": "Structures can show the parent of a compound that is named as a salt."}
{"smiles": "COC(=O)/C=C/C(=O)O", "note": "[methyl hydrogen fumarate]", "values": [{"measurement": "endotoxin-stimulating TNF-α secretion", "setting": "isolated monocytes", "value": "initially increases"}, {"measurement": "endotoxin-stimulating TNF-α secretion", "setting": "[1]; initial exposure, PBMC", "value": "initially increases"}, {"measurement": "endotoxin-induced increase in TNF-α secretion", "setting": "[1]; multiple re-exposure, cell type not restated", "value": "reduced"}]}
